Assays:
[1] = target: hGal-3 protein (Homo sapiens, UniProt P17931); experiment: Competition STD 1H NMR titration against reference ligand TDG (5); format: binding; details: for Kd: calculated from IC50 with Kd(ref.) of TDG and Lref 4 mM (Equation 2); for Kd / Relative STD Intensity of H-4 of TDG titrated by competitor: 303 K; for Relative STD Intensity of H-4 of TDG titrated by competitor: 40 μM hGal-3, 4 mM TDG (5); for IC50: competitor concentration for 50% displacement of 4 mM TDG (5), 40 μM hGal-3, exponential fit; for Relative Affinity, Kd (ref.)/Kd (comp.): referenced to TDG (5), times stronger binding than TDG
From the text: The competition STD NMR method provides an opportunity to characterize moderately and strongly bound protein–ligand systems (KD = 10^−6 M − 10^−9 M), where the determination is not feasible in direct STD experiment due to kinetic reasons. In the competition experiment, the concentration of the target protein and the reference ligand is kept at a constant level. An STD spectrum of the starting sample state is obtained. Then, by adding the competitive ligand in increasing concentration step-by-step, the resonance signal changes in the STD spectra can be monitored. If the competitor ligand binds strongly to the target protein, a decrease in the STD signal intensities of the reference ligand is observed. If the IC50 value is reached before the equimolar ratio of the reference and the competitor ligand, it can be concluded that the competitor binds more strongly than the selected reference compound to the protein. The strength of the interaction can be quantified by the determination of the dissociation constant value (KD).
By plotting the relative STD ^1H NMR signal intensities of the H-4 proton of the reference compound (5) as a function of the concentration of the given competitor ligand, the IC50 values can be determined (Figure 4). The IC50 value gives the concentration of the competitor ligand required to halve the signal intensity of the reference ligand in the STD spectrum, so it provides the competitor concentration required for 50% displacement of the reference compound (5). IC50 values were calculated based on the equation of the exponential function fitted to the points measured.
The dissociation constant of the interaction was calculated according to the following equation (Equation (1)):(1) Kd(ref.)=Lref×Kd(comp.)/IC50−Kd(comp.)
By rearranging this equation, the Kd value of the competitor ligand (Kd(comp.)) can be obtained (Equation (2)):(2) Kd(comp.)=Kd(ref.)×IC50/Lref+Kd(ref.) where Kd(ref.) refers to the dissociation constant of the reference ligand, Lref is the concentration of the reference ligand, Kd(comp.) is the dissociation constant of the competitor compound, and IC50 is the concentration of the competitor compound at half-signal intensity.

[2] = for Aggregation during the series of STD titration experiments: up to 1:1 reference and competition ligand ratio (4 mM)
Description: We chose the TDG (5), a well-known, moderately bound ligand of hGal-3, as a reference ligand for our competition STD ^1H NMR experiments. As a first step, we recorded an STD ^1H NMR spectrum on the starting sample, which always contained 40 μM hGal-3 protein and 4 mM TDG (1:100 protein reference ligand ratio). Then, the titration was started by adding the synthesized competitor ligand into the NMR sample step-by-step, and we performed STD experiments on each solution composition. […] Thus, the 100% STD effect was determined as the H-4 intensity value of TDG (5) in the initial sample state, and its relative decrease caused by adding the competitor ligand in increasing concentration was measured in each titration step (Table 1).
All ^1H STD NMR experiments were recorded on a Bruker Avance Neo 700 MHz spectrometer equipped with a 5 mm z-gradient (TCI) triple-tuned Prodigy cryoprobe. The measurements were performed at a temperature of 303 K. The data acquisition and processing were performed with TopSpin 3.6.2 and 4.1.1 software. Samples were prepared in 10 mM phosphate buffer solution (140 mM NaCl/KCl, pH = 7.4) in D2O. The initial sample contained 40 μM of hGal-3 protein and 4 mM of compound 5 for each experiment. Competitor ligands were added to the initial samples from stock solutions of different concentrations so that the smallest volume (2 μL) could be added in each titration step. […] The protein resonances were selectively irradiated in competition STD experiments by Eburp (90°) excitation pulses, with a length of 50 ms each with a maximum B1 field strength of 75 Hz yielding a total irradiation time of 3 s. The off-resonance pulse frequency was set to −40 ppm and the on-resonance frequency to 0 ppm. Off- and on-resonance data were recorded at alternate scans, and the corresponding FIDs were collected in separate memories of subsequent processing files, and STD spectra were produced after subtraction of the two subspectra. Competition STD spectra were typically recorded with 1200 repetitions (NS = 8, L4 = 150) to ensure an adequate signal-to-noise ratio for the analysis.

[3] = target: hGal-3; design: method as in PMID 32955737; details: reference ligand TDG, ITC; cited from earlier work

hGal-3 protein, sequence (P17931 whole entry): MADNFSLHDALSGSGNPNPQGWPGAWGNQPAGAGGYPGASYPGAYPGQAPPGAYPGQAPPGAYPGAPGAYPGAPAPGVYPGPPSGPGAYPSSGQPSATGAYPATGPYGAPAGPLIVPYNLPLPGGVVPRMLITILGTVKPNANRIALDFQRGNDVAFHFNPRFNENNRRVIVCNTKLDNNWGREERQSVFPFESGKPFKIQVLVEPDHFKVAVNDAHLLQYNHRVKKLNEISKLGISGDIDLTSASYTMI

Compound | Kd [1] [µM] | Relative STD Intensity of H-4 of TDG titrated by competitor ([1]; competitor 10 μM) [%] | Relative STD Intensity of H-4 of TDG titrated by competitor ([1]; competitor 20 μM) [%] | Relative STD Intensity of H-4 of TDG titrated by competitor ([1]; competitor 30 μM) [%] | Relative STD Intensity of H-4 of TDG titrated by competitor ([1]; competitor 40 μM) [%] | Relative STD Intensity of H-4 of TDG titrated by competitor ([1]; competitor 50 μM) [%] | Relative STD Intensity of H-4 of TDG titrated by competitor ([1]; competitor 60 μM) [%] | Relative STD Intensity of H-4 of TDG titrated by competitor ([1]; competitor 100 μM) [%] | IC50 [1] [µM] | Relative Affinity, Kd (ref.)/Kd (comp.) [1] | Solubility ([2]; pH 7.4) | Relative STD Intensity of H-4 of TDG titrated by competitor ([1]; competitor 80 μM) [%] | Relative STD Intensity of H-4 of TDG titrated by competitor ([1]; competitor 120 μM) [%] | Relative STD Intensity of H-4 of TDG titrated by competitor ([1]; competitor 160 μM) [%] | Relative STD Intensity of H-4 of TDG titrated by competitor ([1]; competitor 250 μM) [%] | Relative STD Intensity of H-4 of TDG titrated by competitor ([1]; competitor 400 μM) [%] | Relative STD Intensity of H-4 of TDG titrated by competitor ([1]; competitor 4000 μM) [%] | Aggregation during the series of STD titration experiments [2] | Kd [3] [µM] | Relative STD Intensity of H-4 of TDG titrated by competitor ([1]; competitor 300 μM) [%]
OC[C@H]1O[C@@H](S[C@@H]2O[C@H](CO)[C@H](O)[C@H](OCc3ccc4ccccc4c3)[C@H]2O)[C@H](O)[C@@H](OCc2ccc3ccccc3c2)[C@H]1O [Compound 2, Bis-{3-O-[(Naphtalene-2-yl)Methyl]-β-D-Galactopyranosyl}-Sulfane] | 0.55 | 86 | 68 | 59 | 55 | 37 | 33 | 24 | 43 | 94 | uncertain | – | – | – | – | – | – | – | – | –
OC[C@H]1O[C@@H](S[C@@H]2O[C@H](CO)[C@H](O)[C@H](OCc3ccccc3)[C@H]2O)[C@H](O)[C@@H](OCc2ccccc2)[C@H]1O [Compound 3, Bis-(3-O-Benzyl-β-D-Galactopyranosyl)-Sulfane] | 2.19 | – | – | – | 85 | – | – | – | 172 | 24 | – | 75 | 64 | 50 | 31 | 28 | 0 | did not observe any aggregation | – | –
OC[C@H]1O[C@@H](S[C@@H]2O[C@H](CO)[C@H](O)[C@H](O)[C@H]2O)[C@H](O)[C@@H](O)[C@H]1O [Compound 5, Bis-(β-D-Galactopyranosyl)-Sulfane, reference compound] | – | – | – | – | – | – | – | – | – | 1 | – | – | – | – | – | – | – | – | 51.4 | –
OC[C@H]1O[C@@H](S[C@@H]2O[C@H](CO)[C@H](O)[C@H](OCc3ccc4ccccc4n3)[C@H]2O)[C@H](O)[C@@H](OCc2ccc3ccccc3n2)[C@H]1O [Compound 1, Bis-{3-O-[(Quinoline-2-yl)Methyl]-β-D-Galactopyranosyl}-Sulfane] | 1.7 | – | – | – | 78 | – | – | 61 | 134 | 30 | – | 65 | – | – | 33 | – | 0 | did not observe any aggregation | – | 24

Source: publication PMC10855533, “Saturation Transfer Difference NMR and Molecular Docking Interaction Study of Aralkyl-Thiodigalactosides as Potential Inhibitors of the Human-Galectin-3 Protein” (International Journal of Molecular Sciences, 2024)
